Measurements from patent US11998008B2, “Pesticides and methods of controlling pests” (The State of Israel, Ministry of Agriculture & Rural …, priority 2017, dated 2024).

Legend:
S. rolfsii = assay: Fungicidal activity assay on PDA in sealed Petri dish (growth inhibition and mortality); format: cell-based, Sclerotinia rolfsii; conditions: Agroathelia rolfsii; S. rolfsii; NA + number = still viable in the highest concentration tested (given as >); read-out: M - Mortality, minimal concentration that killed the fungus
Protocol: (§1) Each compound was placed on a disconnected cover from an Eppendorf tube that was located in the middle of the Petri dish and a hyphae-containing plug of each test fungus was added to the culture plate. In exemplary procedures, the tested compounds trans-2-heptenal, trans-2-octenal were tested in comparison with octanal, trans-2-octen-1-ol, methyl trans-2-octenoate, trans-3-octen-2-one and 3-pentenenitrile. In addition, cyclic ketones as 2-cyclopenten-1-one, 2-cyclohexen-1-one and α-tetralone were also examined. Then, the culture plate was sealed with parafilm and incubated at room-temperature for 2 days, after which the growth of the test fungi in those dishes was compared with those in the test compound-free control dishes. At the end of the assay, the viability of each test fungus was evaluated by transferring inoculum plugs to fresh PDA plates and observing the growth that developed within the next 2 days. The test fungi used in this study included but were not limited to Alternaria alternata, Botrytis cinerea, Sclerotinia rolfsii, Penicillium digitatum, Fusarium oxysporum f. sp. radicis-cucumerinum and Rhizoctonia solani.

[1] = tested on: F. oxysporum f. sp. radicis-cucumerium; assay: as above; format: cell-based, Fusarium oxysporum f. sp. radicis-cucumerinum; conditions: Fusarium oxysporum, NA + number = still viable in the highest concentration tested (given as >), read-out: M - Mortality, minimal concentration that killed the fungus
Protocol: as §1

R. solani = assay: microbe, parasite or virus in culture; format: cell-based; conditions: Rhizoctonia solani, read-out: M - Mortality, minimal concentration that killed the fungus
Protocol: as §1

test fungi = assay: Fungicidal activity assay on PDA, summaries over the test fungi; format: cell-based; conditions: comparison within the series
Protocol: as §1, with “In exemplary procedures, the fungicidial activity of the compounds listed in Table 2 were examined by activity assays as follow: Petri dishes, 90 mm in diameter, with air volume of 80 mL, contained 10-12 mL of growth medium comprising potato dextrose agar (PDA) (Acumedia, Lansing, Michigan, USA) amended with tetracycline at 12 μg/mL. Each” for “Each”

Meloidogyne javanica J2s = assay: Greenhouse nematocidal experiment with susceptible tomato plants in inoculated loam; format: in vivo; conditions: tomato harvested after 8 weeks
Protocol: The activity of trans-2-octenal against nematodes was examined in a greenhouse experiment using stage 2 juveniles of the rot-knot nematode Meloidogyne javanica. […] After 2 days, the inoculated soil was treated with 30 ppm of trans-2-octenal and incubated for additional 5 days. Then, susceptible tomato plants were planted, and allowed to grow in a growing chamber for 8 weeks. At the end of the experiment, the plants, along with their root systems, were harvested from their pots and evaluated for incidence of root galling. In addition, M. javanica eggs were extracted from each root and counted, and the number of eggs per gram root was calculated. As shown in FIGS. 14A-14D, trans-2-octenal reduced the galling index and the number of eggs per gram root. […] The activity of 2-cyclohexen-1-one against nematodes was examined in a greenhouse experiment using stage 2 juveniles of the rot-knot nematode Meloidogyne javanica. The experiment was performed as described for trans-2-octenal. […] After 2 days, the inoculated soil was treated with 15 or 31 ppm of 2-cyclohexen-1-one and incubated for additional 5 days. Then, susceptible tomato plants were planted, and allowed to grow in a growing chamber for 8 weeks. At the end of the experiment, the plants, along with their root systems, were harvested from their pots and evaluated for incidence of root galling. In addition, M. javanica eggs were extracted from each root and counted, and the number of eggs per gram root was calculated.

[2] = tested on: tomato seedlings strain Ikram; assay: Phytotoxic effect on tomato seedlings in pots of pretreated loam soil; format: in vivo; conditions: 9 days
Protocol: The phytotoxic effect of 2-cyclohexen-1-one in pots was examined on tomato seedlings strain Ikram. Pots (9-10 repetitions) were filled with 500 g of loam soil pretreated with 2-cyclohexen-1-one at final concentration of 0, 50, and 60 ppm. Then, tomato seedling was planted in each pot and allowed to grow for 9 days. The phytotoxic effect was evaluated by counting the number of live seedling and measuring their heights.

peanut seeds = assay: Phytotoxic effect on peanut seeds in pots of loam soil; format: in vivo; conditions: 16 days; for Number of germinated seeds: 9 seeds sown
Description: The phytotoxic effect of 2-cyclohexen-1-one was also examined on peanut seeds. The concentrations tested were: 0, 10, 20, and 40 ppm, 3 pots for each concentration. After mixing the loam soil with 2-cyclohexne-1-one, three peanut seeds were sown in each pot and let to grow for 16 days.

[3] = tested on: lettuce seedling strain Raviv; conditions: in vivo, 3 days
Protocol: (§2) An experiment in a larger scale was performed in loam soil in which the seedling were planted directly in the treated plot. The soil was treated with 0, 25, 50, 100, 200, 400, 800, and 1,600 ppm of emulsion of trans-2-octenal. The compound was applied using the irrigation system. A day later, tomato seedling strains Ikram and Abigail and lettuce seedling strain Raviv (10 seedlings each) were planted into the treated soil of each concentration. Eleven days later, the number of viable seedlings was counted.

tomato strain Ikram = conditions: in vivo, 3 days
Protocol: as §2

tomato strain Kilates = conditions: in vivo, 3 days
Protocol: The soil was treated with 0, 400 and 800 ppm of emulsion of 2-cyclohexene-1-one. The compound was applied using the irrigation system. A day later, tomato seedling strains Ikram, and Kilates and lettuce seedling strain Raviv (10 seedlings each) were planted into the treated soil of each concentration. Three (3) days later, the number of seedlings was counted.

O=C1C=CCCC1 [2-cyclohexen-1-one]
MFC (S. rolfsii): > 25 µg/mL | MFC [1]: > 25 µg/mL | MFC (R. solani): > 25 µg/mL | fungicidal activity in words (test fungi): fungicidal activity, to some extent | concentration sufficient to reduce the galling index and the number of eggs per gram root (Meloidogyne javanica J2s): 15 ppm | % Viability ([2]; 50 ppm): 100% | Seedling height (Mean ± SD) ([2]; 50 ppm): 21 ± 3 cm | % Viability ([2]; 60 ppm): 67% | Seedling height (Mean ± SD) ([2]; 60 ppm): 16 ± 2 cm | concentration at which phytotoxic effect was obtained ([2]; of 0, 50 and 60 ppm tested): 60 ppm | % Viability (peanut seeds; 10 ppm): 89% | Number of germinated seeds (peanut seeds; 10 ppm): 8 | % Viability (peanut seeds; 20 ppm): 100% | Number of germinated seeds (peanut seeds; 20 ppm): 9 | % Viability (peanut seeds; 40 ppm): 89% | Number of germinated seeds (peanut seeds; 40 ppm): 8 | concentration at which phytotoxic effect was displayed [3]: 800 ppm | concentration at which phytotoxic effect occurred (tomato strain Ikram): 400 ppm | concentration at which phytotoxic effect occurred (tomato strain Kilates): 400 ppm
